17 compounds from US20250221987A1, “PIPERAZINO RING-CONTAINING DERIVATIVE, PHARMACEUTICALLY ACCEPTABLE SALT THEREOF, PREPARATION METHOD THEREFOR, AND APPLICATION THEREOF” (ACERAND THERAPEUTICS (HONG KONG) LIMITED, priority 2022, published 2025) can be followed below.

Where two headings read alike, the source gives them in different places. A value given as a limit tells only on which side of the number the result lay.

Data set [1] can be described thus: Pharmacokinetic study in ICR (CD-1) mice. The data set is classed as in vivo. The conditions noted are these: male ICR (CD-1) mice, tail vein 1 mg/kg, oral 3 mg/kg groups, plasma; for half-life: mouse, read-out: Half-life t1/2 (converted). On the procedure: ICR (CD-1) male mice, 3 mice per group. One group of mice was injected with the compound to be tested via the tail vein at a dose of 1 mg/kg. The other group of mice was administered the compound to be tested via single-dose oral administration at a dose of 3 mg/kg. In the tail vein injection group, blood was collected from the saphenous vein at 5 minutes, 15 minutes, 30 minutes, 1 hour, 2 hours, 4 hours, 8 hours, and 24 hours post-administration. In the single-dose oral administration group, blood was collected at 15 minutes, 30 minutes, 1 hour, 2 hours, 4 hours, 8 hours, and 24 hours post-administration. The collected blood was placed in an EDTA-K2 anticoagulant tube, and 30 μL of whole blood was collected at each time point. Immediately after collection, blood samples were placed on wet ice for centrifugation. Samples would be centrifuged (maintained at 4600 rpm for 5 minutes at 4° C.) within 30 minutes to obtain plasma. The plasma sample was placed into a test tube (a target of 12 to 20 μL) for analysis. […] of plasma was added with 5 μL of MeOH, then added with 200 μL of MeOH/ACN solution containing 5 ng/mL of ISTD (Terfenadine), mixed well with shaking, and centrifuged at 4000 rpm for 15 minutes. The supernatant was diluted 5-fold with MeOH/water (1:1, v/v, 0.1% FA), and loaded to LC-MS/MS for quantification of plasma concentration by analytical methods and calculation of pharmacokinetic parameters.

Data set [2] concerns the target PARP1 (Homo sapiens (Human), UniProt P09874). Briefly: PARP1 enzymatic activity assay. The data set is classed as biochemical. The conditions noted are these: for PARP1/PARP2 inhibition Selectivity multiple N (N = IC50 (PARP2)/IC50 (PARP1)): ratio IC50 (PARP2)/IC50 (PARP1); for IC50: final PARP1 0.02 nM, DNA 0.8 nM, NAD+ 3.5 μM, 60 minutes. Here is the method:
2) After the coating was completed, the coating buffer was discarded.
After washing, the blocking buffer was discarded.
4) 1000× compound was prepared. 1 μL of compound was transferred to a 96-well plate containing 199 μL of reaction buffer (50 mM Tris-HCl (pH 7.5), 0.005% Tween-20, 0.01% BSA) and mixed well.
5) 25/10×PARP1-DNA solution was prepared with reaction buffer.
6) 25/10×NAD+ solution was prepared with reaction buffer.
8) Primary antibody was 2000-fold diluted with the blocking buffer. 20 μL of primary antibody was added to the reaction plate, which was incubated at room temperature for 1.5 hours.
9) The primary antibody was discarded.
10) Secondary antibody was 2000-fold diluted with the blocking buffer.
11) The secondary antibody was discarded.
The chemiluminescence value RLU was read with Envision.

For data set [3], the system named is MDA-MB-436 cells. The data set is described as follows: Proliferation activity assay of MDA-MB-436 cells (CellTiter-Glo). The data set is classed as cell-based. The conditions noted are these: 4000 cells seeded, 6 days incubation, read-out: MDA-MB-436 proliferation inhibition IC50. On the procedure: Complete culture medium was prepared and mixed thoroughly. The cells were resuscitated and cultured for about two passages to select a cell line in good growth condition. The cell culture flask was removed from the incubator. Cell adherence: the culture medium was aspirated, then the cells were washed once with trypsin to discard the waste liquid, and 3 mL of fresh trypsin was added to the culture flask for digestion. When the cells were loose to be detached from the wall of the flask, 8 mL of complete culture medium was added thereto to stop trypsin digestion and mixed gently. The cell suspension was transferred to a centrifuge tube with a pipette and centrifuged at 1000 rpm for 5 minutes. The supernatant was discarded. An appropriate volume of culture medium was added to the centrifuge tube and pipetted gently to resuspend the cells evenly. The cells were counted using a Vi-Cell XR cell counter. The cell suspension was adjusted to an appropriate concentration. The cell suspension was added to a 96-well plate at 100 µL/well. The details such as cell name, seeding density, and date were labelled, and the culture plate was placed in a CO2 incubator overnight.
The compound to be tested was prepared into a 10 mM stock solution, which was aliquoted and stored in a −20° C. freezer. The compound solution was added to a 96-well plate using HPD300. The plate was incubated in a CO2 incubator for a total of 6 days.
CellTiter-Glo buffer was melted at room temperature. The lyophilized CellTiter-Glo substrate was equilibrated to room temperature. CellTiter-Glo buffer was added to the CellTiter Glo substrate and mixed thoroughly. A cell plate was taken out and equilibrated to room temperature. 100 μL of mixed CellTiter Glo reagent was added to each well, and the mixture was shaken in the dark for 10 minutes, followed by incubation for 20 minutes. The culture plate was placed into an Enspire reading plate, and the luminescence reading results were recorded. […] A pharmacodynamic inhibition rate curve was plotted by using XLFit, and the IC50 value was calculated. The 4-parameter model [fit=(A+((B−A)/(1+((C/x)^D)))] was used.
Background: In ATP-based viability assays light output follows the ATP content of the culture.

Data set [4] deals with PARP2 (Homo sapiens (Human), UniProt Q9UGN5). Briefly: PARP2 enzymatic activity assay. The data set is classed as biochemical. Particulars: Biotin-NAD+ 2 μM, 60 minutes.
[5] abbreviates: Homo sapiens, MDA-MB-436, 144 h.

Chain of PARP2 (Q9UGN5 whole entry): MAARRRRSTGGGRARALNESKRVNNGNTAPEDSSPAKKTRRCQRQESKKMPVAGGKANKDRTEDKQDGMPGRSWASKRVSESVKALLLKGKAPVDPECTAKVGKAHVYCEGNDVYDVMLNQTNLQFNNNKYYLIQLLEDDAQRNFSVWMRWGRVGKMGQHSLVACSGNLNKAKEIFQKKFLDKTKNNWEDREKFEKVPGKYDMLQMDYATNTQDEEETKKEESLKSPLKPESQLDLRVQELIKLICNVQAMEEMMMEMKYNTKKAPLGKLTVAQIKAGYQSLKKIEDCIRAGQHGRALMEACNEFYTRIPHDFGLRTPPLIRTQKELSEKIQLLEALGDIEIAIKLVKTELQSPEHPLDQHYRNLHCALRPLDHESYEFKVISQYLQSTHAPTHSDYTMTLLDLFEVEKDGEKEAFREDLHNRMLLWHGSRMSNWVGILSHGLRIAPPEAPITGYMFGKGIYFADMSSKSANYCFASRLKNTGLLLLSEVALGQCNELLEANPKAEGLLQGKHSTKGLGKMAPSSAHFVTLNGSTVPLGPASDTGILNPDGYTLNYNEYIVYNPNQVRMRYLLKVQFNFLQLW
Chain of PARP1 (P09874 whole entry): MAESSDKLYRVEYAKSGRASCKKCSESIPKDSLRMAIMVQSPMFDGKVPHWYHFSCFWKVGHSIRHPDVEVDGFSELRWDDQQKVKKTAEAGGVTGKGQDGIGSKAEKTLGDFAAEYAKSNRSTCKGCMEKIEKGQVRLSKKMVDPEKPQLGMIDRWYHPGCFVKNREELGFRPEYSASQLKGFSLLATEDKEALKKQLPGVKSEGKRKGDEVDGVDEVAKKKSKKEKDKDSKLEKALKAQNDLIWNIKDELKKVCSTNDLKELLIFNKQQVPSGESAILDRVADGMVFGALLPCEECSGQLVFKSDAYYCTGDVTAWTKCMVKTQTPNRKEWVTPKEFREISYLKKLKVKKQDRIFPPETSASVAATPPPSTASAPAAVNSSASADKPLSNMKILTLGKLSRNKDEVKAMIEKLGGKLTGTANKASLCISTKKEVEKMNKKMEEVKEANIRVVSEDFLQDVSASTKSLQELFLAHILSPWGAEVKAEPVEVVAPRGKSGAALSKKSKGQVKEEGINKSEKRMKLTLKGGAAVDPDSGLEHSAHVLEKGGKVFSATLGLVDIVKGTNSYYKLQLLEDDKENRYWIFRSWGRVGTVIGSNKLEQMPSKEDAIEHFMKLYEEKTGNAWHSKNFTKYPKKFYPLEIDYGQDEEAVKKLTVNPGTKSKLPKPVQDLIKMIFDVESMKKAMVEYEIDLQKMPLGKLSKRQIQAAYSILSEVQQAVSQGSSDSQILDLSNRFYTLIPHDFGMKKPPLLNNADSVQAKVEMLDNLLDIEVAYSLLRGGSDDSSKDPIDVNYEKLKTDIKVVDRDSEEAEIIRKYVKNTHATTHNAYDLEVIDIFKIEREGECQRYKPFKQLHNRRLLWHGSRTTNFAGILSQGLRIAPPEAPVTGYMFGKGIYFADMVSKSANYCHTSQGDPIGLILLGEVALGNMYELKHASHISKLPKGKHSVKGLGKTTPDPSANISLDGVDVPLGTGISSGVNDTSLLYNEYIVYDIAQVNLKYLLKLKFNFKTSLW

Turning to `CCc1cc2ncc(CN3CCN(c4ccc(C(=O)NC)nc4)CC3)cc2[nH]c1=O` [AZD5305, reference compound], in data set [1], the “Clearance” value stood at 10.3 mL/h/kg and the half-life was 8.04 h.

Take `CCc1cc2ncc(CN3CCN(c4ccc(C(=O)NC)nc4)C4CCC43)cc2[nH]c1=O` (stereo not drawn) [Example 2, 5-(5-((7-ethyl-6-carbonyl-5,6-dihydro-1,5-naphthyridin-3-yl)methyl)-2,5-diazabicyclo[4.2.0]octan-2-yl)-N-methylpyridine-2-carboxamide]: the “PARP1/PARP2 inhibition Selectivity multiple N (N = IC50 (PARP2)/IC50 (PARP1))” value in data set [2] is on record as 16. In data set [3] (setting [5]), the IC50 was determined as 5 nM.

Consider `CCc1cc2ncc(CN3CCN(c4ccc(C(=O)NC)nc4)[C@@H]4CC[C@@H]43)cc2[nH]c1=O` [Example 2-2, 5-((1R,6S)-5-((7-ethyl-6-carbonyl-5,6-dihydro-1,5-naphthyridin-3-yl)methyl)-2,5-diazabicyclo[4.2.0]octan-2-yl)-N-methylpyridine-2-carboxamide], for which, in data set [2], the IC50 turned out to be 0.6 nM and the “PARP1/PARP2 inhibition Selectivity multiple N (N = IC50 (PARP2)/IC50 (PARP1))” value came out at 71. Also, the IC50 in data set [4] (final PARP2 […]) turned out to be 46.4 nM. The IC50 in data set [3] stood at 1 nM. Also, in data set [1], the “Clearance” value is 1.74 mL/h/kg and the “Half-life t1/2” value turned out to be 57.9 h.

Turning to `CCc1cc2ncc(CN3CCN(c4ccc(C(=O)NC)nc4)[C@H]4CC[C@@H]43)cc2[nH]c1=O` [Example 2-4, 5-((1S,6S)-5-((7-ethyl-6-carbonyl-5,6-dihydro-1,5-naphthyridin-3-yl)methyl)-2,5-diazabicyclo[4.2.0]octan-2-yl)-N-methylpyridine-2-carboxamide], the “PARP1/PARP2 inhibition Selectivity multiple N (N = IC50 (PARP2)/IC50 (PARP1))” value in data set [2] was 40. Also, the IC50 in data set [3] (setting [5]) was 2 nM.

Turning to `CCc1cc2nnc(CN3CCN(c4ccc(C(=O)NC)nc4)[C@@H]4C[C@@H]43)cc2[nH]c1=O` [Example 5-1], in data set [2], the IC50 is 0.9 nM and the “PARP1/PARP2 inhibition Selectivity multiple N (N = IC50 (PARP2)/IC50 (PARP1))” value came out at 83. In data set [4] (final PARP2 […]), this compound registered an IC50 of 75 nM.

Regarding `CCc1cc2nnc(CN3CCN(c4ccc(C(=O)NC)nc4)C4C[C@H]43)cc2[nH]c1=O` (stereo partly drawn) [Example 5-2], the IC50 was 0.5 nM in data set [2] and 32 nM in data set [4] (final PARP2 […]). Also, in data set [2], the “PARP1/PARP2 inhibition Selectivity multiple N (N = IC50 (PARP2)/IC50 (PARP1))” value is on record as 64.

Take `CCc1cc2nnc(CN3CCN(c4ccc(C(=O)NC)nc4)C4C[C@H]43)cc2[nH]c1=O` (stereo partly drawn) [Example 5]: the IC50 was 0.5 nM in data set [2] and 31 nM in data set [4] (final PARP2 […]). In addition, the “PARP1/PARP2 inhibition Selectivity multiple N (N = IC50 (PARP2)/IC50 (PARP1))” value in data set [2] was found to be 62.

On to `CCc1cc2nnc(CN3CCN(c4ccc(C(=O)NC)nc4)[C@@H]4CC[C@@H]43)cc2[nH]c1=O` [Example 10-1], for which, in data set [2], the IC50 worked out at 0.8 nM and the “PARP1/PARP2 inhibition Selectivity multiple N (N = IC50 (PARP2)/IC50 (PARP1))” value is 45. The IC50 in data set [4] (final PARP2 […]) was determined as 36 nM.

On to `CCc1cc2nnc(CN3CCN(c4ccc(C(=O)NC)nc4)C4CC[C@@H]43)cc2[nH]c1=O` (stereo partly drawn) [Example 10-2], for which the IC50 in data set [2] was determined as 0.9 nM; in data set [4] (final PARP2 […]) it was 77 nM; in data set [3] it was 5 nM. Also, the “PARP1/PARP2 inhibition Selectivity multiple N (N = IC50 (PARP2)/IC50 (PARP1))” value in data set [2] amounted to 85.

On to `CCc1cc2nnc(CN3CCN(c4ccc(C(=O)NC)nc4)C4CC[C@H]43)cc2[nH]c1=O` (stereo partly drawn) [Example 10], for which the IC50 in data set [2] was determined as 1 nM; in data set [4] (final PARP2 […]), 105 nM; in data set [3] (setting [5]), 9 nM. In data set [2], the “PARP1/PARP2 inhibition Selectivity multiple N (N = IC50 (PARP2)/IC50 (PARP1))” value is given as 105.

Regarding `CCc1nc2ncc(CN3CCN(c4ccc(C(=O)NC)nc4)[C@H]4CC[C@H]43)cc2[nH]c1=O` [Example 11-1, 5-((1S,6R)-5-((3-ethyl-2-oxo-1,2-dihydropyrido[2,3-b]pyrazin-7-yl)methyl)-2,5-diazabicyclo[4.2.0]octan-2-yl)-N-methylpicolinamide], in data set [2], the IC50 came to 3.9 nM and the “PARP1/PARP2 inhibition Selectivity multiple N (N = IC50 (PARP2)/IC50 (PARP1))” value stood at 69. Also, the IC50 in data set [4] (final PARP2 […]) was 272 nM.

As to `CCc1nc2ncc(CN3CCN(c4ccc(C(=O)NC)nc4)[C@@H]4CC[C@@H]43)cc2[nH]c1=O` [Example 11-2, 5-((1R,6S)-5-((3-ethyl-2-oxo-1,2-dihydropyrido[2,3-b]pyrazin-7-yl)methyl)-2,5-diazabicyclo[4.2.0]octan-2-yl)-N-methylpicolinamide], the IC50 turned out to be 1.5 nM in data set [2], 202 nM in data set [4] (final PARP2 1.5 nM) and 9 nM in data set [3] (setting [5]). Further, the “PARP1/PARP2 inhibition Selectivity multiple N (N = IC50 (PARP2)/IC50 (PARP1))” value in data set [2] came to 135.

With `CNC(=O)c1ccc(N2CCN(Cc3cnc4c5c(c(=O)[nH]c4c3)CCC5)[C@@H]3CC[C@@H]32)cn1` [Example 12-1, N-methyl-5-[(1S,6R)-5-((6-oxo-5H,7H,8H,9H-cyclopenta[c][1,5]naphthyridin-3-yl)methyl)-2,5-diazabicyclo[4.2.0]octan-2-yl]pyridine-2-carboxamide], the IC50 in data set [2] worked out at 0.3 nM; in data set [4] (final PARP2 1.5 nM), 18 nM; in data set [3] (setting [5]) it was 15 nM. The “PARP1/PARP2 inhibition Selectivity multiple N (N = IC50 (PARP2)/IC50 (PARP1))” value in data set [2] was found to be 60.

`CNC(=O)c1ccc(N2CCN(Cc3cnc4c5c(c(=O)[nH]c4c3)CCC5)[C@H]3CC[C@H]32)cn1` [Example 12-2, N-methyl-5-[(1R,6S)-5-((6-oxo-5H,7H,8H,9H-cyclopenta[c][1,5]naphthyridin-3-yl)methyl)-2,5-diazabicyclo[4.2.0]octan-2-yl]pyridine-2-carboxamide]: in data set [2], the IC50 came out at 0.5 nM and the “PARP1/PARP2 inhibition Selectivity multiple N (N = IC50 (PARP2)/IC50 (PARP1))” value worked out at 120. The IC50 in data set [4] (final PARP2 1.5 nM) came out at 60 nM. Moreover, the IC50 in data set [3] (setting [5]) stood at 2 nM. For the same compound, in data set [1], the “Clearance” value is 1.92 mL/h/kg and the half-life was 41.3 h.

Take `CCc1cc2ncc(CN3CCN(c4ccc(-c5nnc(C)[nH]5)nc4)[C@@H]4CC[C@@H]43)cc2[nH]c1=O` [Example 29-2]: the IC50 in data set [2] was 0.7 nM; in data set [4] (final PARP2 […]) it was 30 nM; in data set [3], 13 nM. The “PARP1/PARP2 inhibition Selectivity multiple N (N = IC50 (PARP2)/IC50 (PARP1))” value in data set [2] stood at 43.

Turning to `CNC(=O)c1ccc(N2CCN(Cc3cnc4c5c(c(=O)[nH]c4c3)OCCC5)[C@@H]3CC[C@@H]32)cn1` [Example 31-1, N-methyl-5-((1S,6R)-5-((6-oxo-6,8,9,10-tetrahydro-5H-pyrano[2,3-c][1,5]naphthyridin-3-yl)methyl)-2,5-diazabicyclo[4.2.0]octan-2-yl)picolinamide], the IC50 in data set [2] turned out to be 0.3 nM; in data set [4] (final PARP2 1.5 nM), 91 nM; in data set [3] (setting [5]), 3 nM. Besides, the “PARP1/PARP2 inhibition Selectivity multiple N (N = IC50 (PARP2)/IC50 (PARP1))” value in data set [2] was found to be 303.

Regarding `CNC(=O)c1ccc(N2CCN(Cc3cnc4cc(OC)c(=O)[nH]c4c3)[C@@H]3CCC32)cn1` (stereo partly drawn) [Example 33-2], the IC50 in data set [2] was 2.3 nM; in data set [4] (final PARP2 […]), over 300 nM. Also, the “PARP1/PARP2 inhibition Selectivity multiple N (N = IC50 (PARP2)/IC50 (PARP1))” value in data set [2] is over 130.
